We go through two compounds from patent US9045501B2, “5-HT3 receptor modulators, methods of making, and use thereof” (Albany Molecular Research, Inc., priority 2009, dated 2015).

Experiment [1] has as its target human 5-HT3 receptor (Homo sapiens (Human), UniProt P46098). Kind of experiment: Radioligand binding assay (SPA format), affinity for the human 5-HT3 receptor. The following applies: [9-methyl-3H]BRL-43694 10 nM, human 5-HT3 receptor membranes, Cheng Prusoff; read-out: h5-HT3A Ki. How it is done: The relative affinity of the various compounds for the human 5-HT3 receptor was measured in a radioligand binding assay, using a scintillation proximity assay (SPA) format. Test compounds were dissolved to 10 mM in 100% DMSO, then serially diluted at 10× assay concentrations in 100% DMSO in 96-well polypropylene plates and further diluted to 4× assay concentrations with the assay buffer. Samples were incubated in 50 mM Tris-HCl, pH 7.5, 3 mM MgCl2, 1 mM EDTA and 10% DMSO with 10 nM [9-methyl-^3H]BRL-43694 (Perkin Elmer), 3 μg of human 5-HT3 receptor membranes (Perkin Elmer) and 0.5 mg/mL SPA beads (WGA PVT, Amersham Biosciences) in a final volume of 0.2 mL. Binding reactions were set up in wells of PicoPlates-96 (Perkin Elmer) by adding consecutively 50 μL of each competing compound or buffer, SPA beads, the radioligand and 5-HT3 receptor membranes. After an overnight incubation at room temperature on a Nutator mixer, plates were centrifuged for 15 min at 1,500 rpm, followed by incubation in the dark for 30 min. Radioactivity was counted in the TopCount microplate counter (Perkin Elmer) for 5 min. Total binding control contained compound dilution buffer only; nonspecific binding was determined in the presence of 30 μM MDL-72222. Specific binding was determined by subtracting nonspecific binding from total binding. All experiments were performed in duplicate using ten concentrations of competing ligand, with ondansetron included as a control in every run. IC50 values were determined from specific binding data using XLfit4.1 curve fitting software from IDBS Ltd. The inhibition constant (Ki) was calculated from the Cheng Prusoff equation: (Ki=IC50/(1+(L/KD)), where L=concentration of radioligand in the assay, and KD=affinity of the radioligand for the receptor.

Experiment [2] has as its target h5-HT3A receptor (Homo sapiens (Human), UniProt P46098). The experiment in a line: Agonist activity at recombinant human 5-HT3A receptors, [Ca2+]i in HEK293 cells. In kind it is cell-based. The note with it: at 1 μM, normalized to the response of 5-HT (5-HT response = 100% at 3 μM); NR = no response. Here is the method: Human embryonic kidney (HEK293) cells expressing the h5-HT3A receptor subunit were seeded directly into poly-D-lysine coated, black-walled, clear bottomed, 96 well plates with approximately 1×10^5 cells per well. After 48 hrs incubation in DMEM growth media (100 μL), cells were washed twice (each 200 μL) in Hank's balanced salt solution (Invitrogen) before incubation (1 hr) with Fluo-4 acetoxymethyl (AM) ester (100 μL, 2.5 μM; Molecular Probes). Cells were washed twice (each 200 μL) in Hank's balanced salt solution and incubated for a further 30 min in Hank's balanced salt solution (100 μL) prior to assay (25° C.). Alteration in [Ca^2+]i was measured (relative fluorescence units [RFU]) using a Flexstation (excitation 488 nm and emission 515 nm; frequency of recording 3 sec). After recording for at least 80 sec, vehicle (Hank's balanced salt solution) or drug was automatically administered to the well (50 μL). Baseline was calculated from the 5 data points immediately prior to the first drug administration and the maximum response was that achieved over the 240 sec following drug administration. In all experiments the muscarinic receptor agonist carbachol (1 mM) was added 240 sec after the test drug administration.

For experiment [3], the target named is 5-HT3 receptors (Mus musculus (Mouse), UniProt P23979). Kind of experiment: von Bezold-Jarisch model in vivo: inhibition of 5-HT induced bradycardia. The following applies: 3 mg/kg oral, 60 min before 5-HT 0.1 mg/kg IV, anesthetized male ICR mice; highest oral dose tested. How it is done:
This is a well characterized and widely used model to assess 5-HT3 receptor function in vivo (King et al., 5-Hydroxtryptamine-3 Receptor Antagonists, CRC Press, pp. 74-75 (1993), which is hereby incorporated by reference in its entirety). Certain compounds (Table 1) were evaluated for their ability to inhibit serotonin induced bradycardia in vivo in the mouse (Saxena et al., Arch. Int. Pharmacodyn., 277:235-252 (1985), which is hereby incorporated by reference in its entirety). Test substances and vehicle [2% Tween 80] were each administered orally to a group of 5 male ICR mice each weighing 24±2 g. A dosing volume of 10 mL/kg was used. Sixty minutes later, 5-HT (0.1 mg/kg IV)-induced bradycardia was recorded in urethane (2250 mg/kg IP, given 10 minutes before 5-HT)-anesthetized animals.

Each structure is given as a SMILES string.

Sequence of 5-HT3 receptors (P23979 24-489): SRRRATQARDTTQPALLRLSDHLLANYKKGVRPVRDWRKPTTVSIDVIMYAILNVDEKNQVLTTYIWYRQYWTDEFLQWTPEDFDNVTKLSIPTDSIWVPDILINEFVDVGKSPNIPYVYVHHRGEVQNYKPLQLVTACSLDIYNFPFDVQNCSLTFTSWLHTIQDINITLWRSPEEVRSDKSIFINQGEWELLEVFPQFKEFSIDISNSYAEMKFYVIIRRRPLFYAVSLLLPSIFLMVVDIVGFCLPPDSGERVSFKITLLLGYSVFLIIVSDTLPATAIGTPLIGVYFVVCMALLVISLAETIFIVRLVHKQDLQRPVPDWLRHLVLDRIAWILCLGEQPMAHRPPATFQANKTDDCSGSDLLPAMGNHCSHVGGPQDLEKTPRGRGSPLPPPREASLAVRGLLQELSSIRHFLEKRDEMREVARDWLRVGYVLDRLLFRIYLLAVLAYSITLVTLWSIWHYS
Sequence of h5-HT3A receptor (P46098 24-478): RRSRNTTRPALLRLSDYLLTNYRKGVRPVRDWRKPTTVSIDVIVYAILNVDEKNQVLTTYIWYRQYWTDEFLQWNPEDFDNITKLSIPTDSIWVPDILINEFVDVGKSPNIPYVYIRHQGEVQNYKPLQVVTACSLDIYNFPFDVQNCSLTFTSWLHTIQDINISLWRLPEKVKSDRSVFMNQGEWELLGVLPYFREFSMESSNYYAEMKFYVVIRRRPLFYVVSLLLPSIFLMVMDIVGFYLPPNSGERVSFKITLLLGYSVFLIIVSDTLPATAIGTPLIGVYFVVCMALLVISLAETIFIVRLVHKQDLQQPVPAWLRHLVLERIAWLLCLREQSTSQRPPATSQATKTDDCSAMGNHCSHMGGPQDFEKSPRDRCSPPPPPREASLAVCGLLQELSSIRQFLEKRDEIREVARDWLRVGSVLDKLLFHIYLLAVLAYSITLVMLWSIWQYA
Sequence of human 5-HT3 receptor (P46098 24-478): as above

A word on the Ki: it is the equilibrium dissociation constant of an inhibitor or competing ligand from its target. On to `O=C1c2cccc3cnn(c23)CCN1[C@@H]1CN2CCC1CC2` [Example 7, (S)-7-(quinuclidin-3-yl)-8,9-dihydro-[1,4]diazepino[6,7,1-hi]indazol-6(7H)-one], for which the Ki in experiment [1] came out at 8 nM. Moreover, in experiment [2], the “HEK293 h5-HT3A % agonist response” value was determined as 19%. Moreover, in experiment [3], the “Inhibition of 5-HT Induced Bradycardia in Mice” value came out at 77% @ 3 mg/kg.

Regarding `O=C1c2cccc3[nH]nc(c23)CN1CC12CCN(CC1)CC2` [Example 29, 4-(quinuclidin-4-ylmethyl)-3,4-dihydropyrazolo[3,4,5-de]isoquinolin-5(1H)-one], in experiment [1], the Ki is 2 nM. For the same compound, in experiment [2], the “HEK293 h5-HT3A % agonist response” value is 1%. For the same compound, in experiment [3], the “Inhibition of 5-HT Induced Bradycardia in Mice” value is reported as 87% @ 3 mg/kg.
